Test results: patent US8741359B2, “Method for testing a substance which is potentially active in the field of lipolysis and its mainly cosmetic use” (BASF Beauty Care Solutions France S.A.S., priority 2001, dated 2014)

What was measured:
lipoprotein lipase [1] = target: T1, lipoprotein lipase (Bos taurus, UniProt P11151); assay: Inhibition of lipoprotein lipase, acellular in vitro model, NEFA determination with NEFA-C kit (colorimetry 550 nm); format: biochemical, bovine; conditions: for Inhibition (%) Pure product diluted to a 1/100th / Inhibition (%) Pure product diluted to a 1/10,000th / Inhibition (%) Pure product: reference inhibitors; for Inhibition (%) Pure product: pure product at initial concentration (protamine sulphate 0.4%, protamine 2.4%, sodium pyrophosphate 6%)
T1 construct: The LPL used in the study model retained does in fact originate from bovine milk; from tissue; host or cells: bovine milk
T1 sequence (P11151 29-478): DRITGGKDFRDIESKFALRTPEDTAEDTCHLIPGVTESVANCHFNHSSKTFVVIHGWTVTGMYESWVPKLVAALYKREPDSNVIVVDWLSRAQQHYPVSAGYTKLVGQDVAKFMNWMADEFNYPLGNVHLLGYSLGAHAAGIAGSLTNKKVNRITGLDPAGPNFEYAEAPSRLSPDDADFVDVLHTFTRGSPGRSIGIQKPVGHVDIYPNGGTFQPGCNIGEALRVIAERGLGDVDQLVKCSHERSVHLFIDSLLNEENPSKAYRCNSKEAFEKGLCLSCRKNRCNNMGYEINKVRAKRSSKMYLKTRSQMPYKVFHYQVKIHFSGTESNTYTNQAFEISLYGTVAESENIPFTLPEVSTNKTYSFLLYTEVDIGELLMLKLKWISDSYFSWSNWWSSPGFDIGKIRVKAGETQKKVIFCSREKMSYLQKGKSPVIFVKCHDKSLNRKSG
Experimental: The study of the inhibition of the lipoprotein lipase is carried out in an acellular in vitro model which is desired to be a most ? intelligent ? reflection possible of the situation encountered in vivo.
Upon completion of this incubation, a determination of the non-esterified fatty acids (NEFA) is effected upon the reaction medium by an enzymatic technique which is possible to be followed by colorimetry at 550 nm (NEFA-C kit).
A control corresponding to the LPL activity in the absence of inhibitor is effected. […] The results are expressed in percentage inhibition with respect to the control.

lipoprotein lipase [2] = target: T1, lipoprotein lipase; assay: Inhibition of lipoprotein lipase, released oleic acid determined by gas phase chromatography (GPC); format: biochemical, bovine; conditions: for Inhibition Pure product diluted to a 1/100th: diluted 1/100th; for Inhibition Pure product diluted to a 1/10,000th: diluted 1/10,000th; for Inhibition Pure product: pure product at initial concentration (sodium pyrophosphate 6%, protamine sulphate 0.4%)
Experimental: LPL is an enzyme which has a significant affinity for its reaction product. The fatty acids released will in fact aggregate around the enzyme which will as it were be sequestered by the fatty acids and will therefore be no longer accessible to the substrate. […] II—Inhibition of the Lipoprotein Lipase:
The enzyme is incubated for a determined period of time in the presence of its inhibitor while the triolein is incubated in the presence of apoCII so as to mimic the situation encountered in vivo.
The triolein/ApoCII mixture is then incubated in the presence of the medium constituted by the enzyme±inhibitor.
For this, an oleic acid determination technique which enables the oleic acid at the end of the enzymatic reaction to be quantified, was developed.
The oleic acid is extracted from the reaction medium of the enzymatic determination with ethanol, and then injected onto a commercial column from DBJW scientific: reference DB FFAP, 15 m in length, 0.32 mm internal diameter, 0.25 μm thickness in splitless mode. The temperatures of the injector and of the detector are 280° C. The programming in temperature starts at 50° C. for 1 minute and then rises by 40° C./minute up to 200° C. and then by 15° C. par minute up to 250° C. for 3 minutes.

Row | Compound | Inhibition (%) Pure product diluted to a 1/100th (lipoprotein lipase [1]; diluted 1/100th) | Inhibition (%) Pure product diluted to a 1/10,000th (lipoprotein lipase [1]; diluted 1/10,000th) | Inhibition (%) Pure product (lipoprotein lipase [1]) | Inhibition Pure product diluted to a 1/100th (lipoprotein lipase [2]) | Inhibition Pure product diluted to a 1/10,000th (lipoprotein lipase [2]) | Inhibition Pure product (lipoprotein lipase [2]) | Inhibition Pure product diluted to a 1/100th (lipoprotein lipase [1]; denaturing products, diluted 1/100th) | Inhibition Pure product diluted to a 1/10,000th (lipoprotein lipase [1]; denaturing products, diluted 1/10,000th) | Inhibition Pure product (lipoprotein lipase [1]; denaturing products, pure product)
1 | O=P([O-])([O-])OP(=O)([O-])[O-].[Na+].[Na+].[Na+].[Na+] [Sodium pyrophosphate] | 13% ± 12.5 | 0.4% ± 8.3 | 15% ± 12.6 | 30.4% ± 4.0 | 47.4% ± 10.4 | 35.1% ± 11.1 | – | – | –
2 | O=C(OC[C@H]1O[C@@H](OC(=O)c2cc(O)c(O)c(OC(=O)c3cc(O)c(O)c(O)c3)c2)[C@H](OC(=O)c2cc(O)c(O)c(OC(=O)c3cc(O)c(O)c(O)c3)c2)[C@@H](OC(=O)c2cc(O)c(O)c(OC(=O)c3cc(O)c(O)c(O)c3)c2)[C@@H]1OC(=O)c1cc(O)c(O)c(OC(=O)c2cc(O)c(O)c(O)c2)c1)c1cc(O)c(O)c(OC(=O)c2cc(O)c(O)c(O)c2)c1 [Tannic acid] | – | – | – | 44.8% ± 10.6 | 0% ± 3.8 | 100% ± 1.8 | 11.4% ± 10.39 | 0% ± 9.8 | 98.3% ± 12.4
3 | Protamine | 9.6% ± 5 | 8.5% ± 8.7 | 11.2% ± 6.6 | – | – | – | – | – | –
4 | Protamine sulphate | 2.6% ± 14.4 | 11.8% ± 14.7 | 10.1% ± 7.9 | 5.0% ± 9.6 | 27.7% ± 2.9 | 17.9% ± 17.5 | – | – | –
